From ChEMBL document CHEMBL1141596, “A new class of bradykinin B1 receptor antagonists with high oral bioavailability and minimal PXR activity” (Bioorg Med Chem Lett, 2008)

system: not listed separately; test: Oral bioavailability in Sprague-Dawley rat at 10 mg/kg; assay type: ADME, organism-based; conditions: in vivo

First: CCOc1c(Cl)cc(Cl)cc1-c1ccc([C@@H](C)NC(=O)C2(NC(=O)C(F)(F)F)CC2)c(F)c1
Second: CCOc1c(Cl)cc(Cl)cc1-c1cnc([C@@H](C)NC(=O)C2(NC(=O)C(F)(F)F)CC2)c(F)c1
The bioavailability of the first is higher: 38% for the first, 8% for the second.

Compared with `C[C@@H](NC(=O)C1(NC(=O)C(F)(F)F)CC1)c1ccc(-c2cc(Cl)cc(Cl)c2OC(CF)CF)cc1F`, `CCOc1c(Cl)cccc1-c1ccc([C@@H](C)NC(=O)C2(NC(=O)C(F)(F)F)CC2)c(F)c1` is lower in bioavailability: 56% for the first, 48% for the second.

molecular target: T1, B1 bradykinin receptor (Homo sapiens) (UniProt P46663); test: Ex vivo receptor occupancy at bradykinin B1 receptor; conditions: not given
T1 sequence (whole entry): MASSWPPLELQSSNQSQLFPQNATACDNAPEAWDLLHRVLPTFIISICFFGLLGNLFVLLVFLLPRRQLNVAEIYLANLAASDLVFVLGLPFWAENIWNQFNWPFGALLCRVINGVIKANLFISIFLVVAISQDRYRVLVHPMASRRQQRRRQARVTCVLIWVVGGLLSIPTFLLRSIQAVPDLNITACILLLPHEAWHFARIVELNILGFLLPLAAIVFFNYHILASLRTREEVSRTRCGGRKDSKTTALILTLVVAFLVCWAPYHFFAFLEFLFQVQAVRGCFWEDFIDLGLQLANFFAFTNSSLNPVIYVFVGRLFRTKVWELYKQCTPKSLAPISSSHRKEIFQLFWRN

For `CCOc1c(Cl)cc(Cl)cc1-c1cnc([C@@H](C)NC(=O)C2(NC(=O)C(F)(F)F)CC2)c(F)c1`, the Occ90 was 1450 nM.

system: not listed separately; test: Apparent permeability by cell based assay; assay type: ADME; conditions: not told

Going from `CCOc1c(Cl)cc(Cl)cc1-c1ccc([C@@H](C)NC(=O)C2(NC(=O)C(F)(F)F)CC2)c(F)c1` to `CCOc1c(Cl)cccc1-c1ccc([C@@H](C)NC(=O)C2(NC(=O)C(F)(F)F)CC2)c(F)c1`, the Papp rises from 18 ×10⁻⁶ cm/s to 29 ×10⁻⁶ cm/s (1.6-fold).

`C[C@@H](NC(=O)C1(NC(=O)C(F)(F)F)CC1)c1ncc(-c2cc(Cl)cc(Cl)c2OCC(F)F)cc1F` and `C[C@@H](NC(=O)C1(NC(=O)C(F)(F)F)CC1)c1ccc(-c2cc(Cl)cc(Cl)c2OC(CF)CF)cc1F` are within 1.5-fold of each other in Papp: 23 ×10⁻⁶ cm/s for the first, 28 ×10⁻⁶ cm/s for the second.

system: not listed separately; test: Clearance in Sprague-Dawley rat at 10 mg/kg, po or 2 mg/kg, iv; assay type: ADME, organism-based; conditions: in vivo

`CCOc1c(Cl)cc(Cl)cc1-c1ccc([C@@H](C)NC(=O)C2(NC(=O)C(F)(F)F)CC2)c(F)c1` and `CCOc1c(Cl)cc(Cl)cc1-c1cnc([C@@H](C)NC(=O)C2(NC(=O)C(F)(F)F)CC2)c(F)c1` are within 1.5-fold of each other in clearance: 11.5 mL/min/kg for the first, 11.3 mL/min/kg for the second.

Compared with `C[C@@H](NC(=O)C1(NC(=O)C(F)(F)F)CC1)c1ccc(-c2cc(Cl)cc(Cl)c2OC(CF)CF)cc1F`, `CCOc1c(Cl)cccc1-c1ccc([C@@H](C)NC(=O)C2(NC(=O)C(F)(F)F)CC2)c(F)c1` is 10-fold higher in clearance: 1.6 mL/min/kg for the first, 16 mL/min/kg for the second.

system: not listed separately; test: Half life in Sprague-Dawley rat at 10 mg/kg, po or 2 mg/kg, iv; assay type: ADME, organism-based; conditions: in vivo

Compared with `CCOc1c(Cl)cc(Cl)cc1-c1ccc([C@@H](C)NC(=O)C2(NC(=O)C(F)(F)F)CC2)c(F)c1`, `CCOc1c(Cl)cc(Cl)cc1-c1cnc([C@@H](C)NC(=O)C2(NC(=O)C(F)(F)F)CC2)c(F)c1` is 1.5-fold lower in half-life: 7.5 h for the first, 5 h for the second.

Compared with `C[C@@H](NC(=O)C1(NC(=O)C(F)(F)F)CC1)c1ccc(-c2cc(Cl)cc(Cl)c2OC(CF)CF)cc1F`, `CCOc1c(Cl)cccc1-c1ccc([C@@H](C)NC(=O)C2(NC(=O)C(F)(F)F)CC2)c(F)c1` is 2.6-fold lower in half-life: 5 h for the first, 1.9 h for the second.

molecular target: T2, B1 bradykinin receptor (Homo sapiens, UniProt P46663); test: Binding affinity to human bradykinin B1 receptor expressed in rat CNS; conditions: not given
T2 sequence (P46663 whole entry): T1 sequence (whole entry)

`CCOc1c(Cl)cc(Cl)cc1-c1ccc([C@@H](C)NC(=O)C2(NC(=O)C(F)(F)F)CC2)c(F)c1` and `CCOc1c(Cl)cc(Cl)cc1-c1cnc([C@@H](C)NC(=O)C2(NC(=O)C(F)(F)F)CC2)c(F)c1` are within 1.5-fold of each other in Ki: 1.3 nM for the first, 1.5 nM for the second.

Going from `C[C@@H](NC(=O)C1(NC(=O)C(F)(F)F)CC1)c1ncc(-c2cc(Cl)cc(Cl)c2OCC(F)F)cc1F` to `C[C@@H](NC(=O)C1(NC(=O)C(F)(F)F)CC1)c1ccc(-c2cc(Cl)cc(Cl)c2OC(CF)CF)cc1F`, the Ki falls from 1.5 nM to 0.9 nM (1.7-fold). The second binds more tightly here.

`CCOc1c(Cl)cccc1-c1ccc([C@@H](C)NC(=O)C2(NC(=O)C(F)(F)F)CC2)c(F)c1` gave a Ki of 0.9 nM.

system: not listed separately; test: Half life in Mongrel dog at 1 mg/kg, iv; assay type: ADME, organism-based, Canis lupus familiaris; parameters: dose 1 mg/kg, route intravenous; conditions: in vivo

Compound `C[C@@H](NC(=O)C1(NC(=O)C(F)(F)F)CC1)c1ncc(-c2cc(Cl)cc(Cl)c2OCC(F)F)cc1F` has a half-life of 21 h.

system: not listed separately; test: Ratio of permeability from basolateral to apical over apical to basolateral side in P-gp expressing cells; conditions: not given

In the case of `CCOc1c(Cl)cccc1-c1ccc([C@@H](C)NC(=O)C2(NC(=O)C(F)(F)F)CC2)c(F)c1`, the Ratio is reported as 1.9.

molecular target: T3, PXR (Nuclear receptor subfamily 1 group I member 2) (Homo sapiens, UniProt O75469); test: Reduction of PXR activation at 10 uM relative to rifampicin; parameters: scale not given: the % may be the effect or the level left; conditions: read-out: Activity
T3 sequence (O75469 whole entry): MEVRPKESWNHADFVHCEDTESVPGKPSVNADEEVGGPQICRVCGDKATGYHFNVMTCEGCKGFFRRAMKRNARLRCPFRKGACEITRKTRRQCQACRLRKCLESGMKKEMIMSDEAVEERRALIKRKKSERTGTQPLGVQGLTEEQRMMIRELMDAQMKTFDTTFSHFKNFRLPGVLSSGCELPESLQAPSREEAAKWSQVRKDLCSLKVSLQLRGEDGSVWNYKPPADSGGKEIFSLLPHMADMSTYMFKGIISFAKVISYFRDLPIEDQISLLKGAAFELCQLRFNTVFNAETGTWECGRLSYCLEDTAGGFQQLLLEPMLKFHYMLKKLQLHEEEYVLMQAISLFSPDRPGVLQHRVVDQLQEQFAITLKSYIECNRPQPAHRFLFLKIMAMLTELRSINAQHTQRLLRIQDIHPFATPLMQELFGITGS

Compared with `CCOc1c(Cl)cc(Cl)cc1-c1ccc([C@@H](C)NC(=O)C2(NC(=O)C(F)(F)F)CC2)c(F)c1`, `CCOc1c(Cl)cc(Cl)cc1-c1cnc([C@@H](C)NC(=O)C2(NC(=O)C(F)(F)F)CC2)c(F)c1` is higher in activity at 10 µM: 62% for the first, 89% for the second.

With `C[C@@H](NC(=O)C1(NC(=O)C(F)(F)F)CC1)c1ncc(-c2cc(Cl)cc(Cl)c2OCC(F)F)cc1F` the activity at 10 µM was 99%.

system: not listed separately; test: Ratio of drug level in brain to plasma in african green monkey; assay type: ADME, organism-based; conditions: chlorocebus aethiops

`CCOc1c(Cl)cc(Cl)cc1-c1cnc([C@@H](C)NC(=O)C2(NC(=O)C(F)(F)F)CC2)c(F)c1` gave a Kp of 2.2.

system: not listed separately; test: Clearance in Mongrel dog at 1 mg/kg, iv; assay type: ADME, organism-based, Canis lupus familiaris; parameters: dose 1 mg/kg, route intravenous; conditions: in vivo

Work on `C[C@@H](NC(=O)C1(NC(=O)C(F)(F)F)CC1)c1ncc(-c2cc(Cl)cc(Cl)c2OCC(F)F)cc1F` yielded a clearance of 2.3 mL/min/kg.
